The values that follow come from ChEMBL document CHEMBL1159236, “Venezenin: a new bioactive Annonaceous acetogenin from the bark of Xylopia aromatica” (J Nat Prod, 1995).

In one series the test system is HT-29. In words: Cytotoxicity against human HT-29 cells after 7 hrs by MTT assay. The series is classed as functional. As to conditions: for EC50: Homo sapiens, HT-29, 7 h, read-out: ED50 (the source's name).
Another series relates to A549. In words: Cytotoxicity against human A549 cells after 7 hrs by MTT assay. Particulars: A549, 7 h, read-out: ED50 (the source's name). Format: functional.
The subject of a further series is MCF7. In words: Cytotoxicity against human MCF7 cells after 7 hrs by MTT assay. The series is classed as functional. Particulars: for EC50: Homo sapiens, MCF7, 7 h, read-out: ED50 (the source's name).
Series [1] in a line: Toxicity in brine shrimp. Format: organism-based. Particulars: artemia, in vivo.
Series [2] can be described thus: Inhibition of respiration in rat liver mitochondria assessed per mg of protein. The series is classed as functional.

Converted amounts (≈) assume the structure as drawn. Bounds are passed on as bounds.

For `CCCCCCCCCCCC/C=C\CC[C@H]1OC(C)(C)O[C@@H]1CCCCCCC(=O)CCCCC[C@@H](O)CC1=C[C@H](C)OC1=O`, the EC50 in the series with HT-29 was 0.932 µg/mL (≈ 1.44 µM); in the series with A549, less than 0.001 µg/mL; in the series with MCF7, 0.347 µg/mL (≈ 0.536 µM).

As to `CCCCCCCCCCCC[C@H](O)[C@@H]1CC[C@@H]([C@@H](O)CCCCCCC(=O)CCCCC[C@@H](O)CC2=C[C@H](C)OC2=O)O1`, in series [1], the LC50 is 0.84 µg/mL (≈ 1.35 µM). In series [2], this compound gave an IC50 of 1.7 µM. For the same compound, the ED50 with HT-29 is recorded as 3.46 ×10⁻⁴ ug/ml; in the series with MCF7, 7.47 ×10⁻⁵ ug/ml. Further, in the series with A549, the EC50 is 0.00786 µg/mL (≈ 0.0126 µM).

As to `CCCCCCCCCCCC/C=C\CC[C@@H](O)[C@H](O)CCCCCCC(O)CCCCC[C@@H](O)CC1=C[C@H](C)OC1=O` (stereo partly drawn), the figures for the EC50 in the series on HT-29, in the series with A549 and in the series with MCF7 were 2.62 µg/mL (≈ 4.3 µM), less than 0.001 µg/mL and 0.0572 µg/mL (≈ 0.0939 µM), respectively.

The compound `CCCCCCCCCCCC[C@H](O)[C@@H]1CC[C@H]([C@H](O)CCCCCCC(=O)CCCCC[C@@H](O)CC2=C[C@H](C)OC2=O)O1` gave an LC50 in series [1] of 0.98 µg/mL (≈ 1.57 µM). In addition, the EC50 was found to be 0.047 µg/mL (≈ 0.0755 µM) in the series with HT-29, 0.0045 µg/mL (≈ 0.00722 µM) in the series on A549 and 0.056 µg/mL (≈ 0.0899 µM) with MCF7.

As to `COc1cccc2c1C(=O)c1c(O)c3c(c(O)c1C2=O)C[C@@](O)(C(=O)CO)C[C@@H]3O[C@H]1C[C@H](N)[C@H](O)[C@H](C)O1` [DOXORUBICIN], the EC50 with HT-29 is 0.0392 µg/mL (≈ 0.0721 µM); in the series with A549, 0.0092 µg/mL (≈ 0.0169 µM); in the series with MCF7 it was 0.23 µg/mL (≈ 0.423 µM).

In the case of `C=C(C)[C@H]1Cc2c(ccc3c2O[C@@H]2COc4cc(OC)c(OC)cc4[C@@H]2C3=O)O1` [ROTENONE], in series [2], inhibition was half-maximal at 34 µM (IC50).

In series [1], `CCCCCCCCCCCC/C=C\CC[C@@H](O)[C@H](O)CCCCCCC(=O)CCCCC[C@@H](O)CC1=C[C@H](C)OC1=O` [VENEZENIN] had an LC50 of 9.33 µg/mL (≈ 15.4 µM). Further, the EC50 in the series with HT-29 was 1.58 µg/mL (≈ 2.6 µM); with A549, 0.0108 µg/mL (≈ 0.0178 µM); with MCF7 it was less than 0.01 µg/mL.
